According to the NIST ThermoML archive (doi:10.1016/j.jct.2016.04.024):

Key:
[1] = 100 kPa, Liquid; for speed of sound: Frequency=3 MHz, Sing-around technique in a fixed-path interferometer; for mass density: Vibrating tube method
[2] = xn = mol fraction of the nth substance listed; details: 100 kPa, Liquid; for speed of sound: Frequency=3 MHz, Sing-around technique in a fixed-path interferometer; for mass density: Vibrating tube method

CCCCn1cc[n+](C)c1.F[B-](F)(F)F [1-butyl-3-methylimidazolium tetrafluoroborate]
[1], 293.15 K
Details | mass density [kg/m3] | speed of sound [m/s]
– | 1203.63 | 1577.5

CCCCn1cc[n+](C)c1.F[B-](F)(F)F [1-butyl-3-methylimidazolium tetrafluoroborate] + Nc1ccccc1
[2], x1 = 1
Details | mass density [kg/m3] | speed of sound [m/s]
293.15 K | 1203.63 | 1577.5
303.15 K | 1195.18 | 1553.2
313.15 K | 1188.04 | 1529.7
323.15 K | 1180.98 | 1506.8

Nc1ccccc1 [aniline]
[1]
Details | mass density [kg/m3] | speed of sound [m/s]
293.15 K | 1021.69 | 1656.8
303.15 K | 1013.04 | 1618.3
313.15 K | 1004.36 | 1580
323.15 K | 995.66 | 1541.9

Nc1ccccc1 [aniline] + CCCCn1cc[n+](C)c1.F[B-](F)(F)F
[2]
Details | mass density, 293.15 K [kg/m3] | mass density, 303.15 K [kg/m3] | mass density, 313.15 K [kg/m3] | mass density, 323.15 K [kg/m3] | speed of sound, 293.15 K [m/s] | speed of sound, 303.15 K [m/s] | speed of sound, 313.15 K [m/s] | speed of sound, 323.15 K [m/s]
x2 = 0 | 1021.69 | 1013.04 | 1004.36 | 995.66 | 1656.8 | 1618.3 | 1580 | 1541.9
x2 = 0.1001 | 1058.27 | 1050.3 | 1042.33 | 1034.33 | 1661 | 1626.5 | 1592 | 1557.7
x2 = 0.2028 | – | – | – | 1068.14 | – | – | – | 1569.8
x2 = 0.4991 | 1150.32 | 1143.1 | 1135.81 | 1128.64 | 1624.8 | 1598.3 | 1571.9 | 1546.1
x2 = 0.6032 | 1163.88 | 1156.61 | 1149.6 | 1142.78 | 1610.6 | 1584.8 | 1559.4 | 1534.7
x2 = 0.7021 | 1175.38 | 1168.21 | 1161.22 | 1154.4 | 1599.8 | 1574.8 | 1549.2 | 1525.1
x2 = 0.7907 | 1184.36 | 1177.25 | 1170.51 | 1163.73 | 1592.7 | 1568.5 | 1540.8 | 1518.5
x2 = 0.9026 | 1194.78 | 1187.71 | 1180.84 | 1173.92 | 1584.1 | 1559.7 | 1535.8 | 1512.4
